Data from ChEMBL document CHEMBL1148150, “New cytotoxic furanosesterterpenes from an Okinawan marine sponge, Ircinia sp” (J Nat Prod, 2003).

What follows are compounds tested on KB (assay: Cytotoxicity against human KB cells).
Assay type: functional, cell-based

| Compound | IC50 [µg/mL] |
| --- | --- |
| C/C(=C/C=C/[C@]1(C)CCCc2ccoc21)CCC[C@H](C)CC(=O)[C@H](O)[C@H](C)Cl | < 1 |
| C/C(=C/C=C/[C@]1(C)CCCc2ccoc21)CCC[C@H](C)CC(=O)[C@@H](O)[C@H](C)Cl | < 1 |
| CC1=C(O)/C(=C/[C@@H](C)CCC/C(C)=C\C=C\[C@]2(C)CCCc3ccoc32)OC1=O | ≥ 1 |
| CC1=C(O)/C(=C/[C@@H](C)CCC/C(C)=C/C=C/[C@]2(C)CCCc3ccoc32)OC1=O | ≥ 1 |
| CCC(O)C(=O)C[C@@H](C)CCC/C(C)=C\C=C\[C@]1(C)CCCc2ccoc21 (stereo not given in full) | < 1 |
